Test results taken from patent US7374870B2, “Systems and methods for removing viral agents from blood” (Fenwal, Inc., priority 1996, dated 2008).

Columns and labels:
[1] = tested on: viruses; assay: Viral inactivation by the photoreduction byproduct; details: byproduct formed by exposing methylene blue to visible ambient light
[2] = tested on: encephalomyocarditis virus (EMC); details: cited from earlier work

SMILES | effectiveness in inactivating viruses [1] | virucidal action on non-enveloped EMC [2]
CN(C)c1ccc2c(c1)Sc1cc(N(C)C)ccc1N2 [leucomethylene blue] | not effective in inactivating viruses | 
CN(C)c1ccc2nc3ccc(=[N+](C)C)cc-3sc2c1 [methylene blue] |  | demonstrated a resistance to the virucidal action
